Among the test systems are HOP-92 NSCLC; TK-10 renal; NCI-H226 lung; CAKI-1 renal; SF-295 CNS; SR leukemia; UO-31 renal; COLO 205 colon; SW-620 colon; HCT-116 colon.
Common to all, as to experiment: inhibition of tumour cell growth, NCI panel, 48 h

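The compound was tested at five concentrations on cells cultured in 96-well plates, with a 48-hour exposure period. GI50: concentration for 50% inhibition of growth. TGI denotes the concentration required for complete inhibition of growth.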

Regarding `CCCCCCCCCCCCCCCCCCOc1ccccc1CC(=O)OCC[N+]1(C)CCCC1`, the GI50 in the test on HOP-92 NSCLC was 1.22 µM; in the test with TK-10 renal it was 1.52 µM; in the test on NCI-H226 lung, 2.2 µM; in the test on CAKI-1 renal it was 1.6 µM; with SF-295 CNS, 2.83 µM; in the test on SR leukemia, 2.47 µM. In addition, the GI50 with UO-31 renal is 3.27 µM. Moreover, the TGI with HOP-92 NSCLC is 3.37 µM; in the test with TK-10 renal it was 3.08 µM; in the test on NCI-H226 lung, 6.09 µM; in the test on CAKI-1 renal it was 4.05 µM; with SF-295 CNS, 8.8 µM; with SR leukemia it was 6.92 µM. This compound also gave a TGI in the test on UO-31 renal of 15 µM.
With `Cc1ncc(CCCN(C)C)cc1Nc1ncc2c(n1)-c1ccc(C(F)(F)F)cc1NC(=S)C2`, the GI50 in the test with HOP-92 NSCLC is 0.0216 µM; in the test on TK-10 renal, 0.65 µM; in the test on NCI-H226 lung, 0.659 µM; in the test with COLO 205 colon, less than 0.0111 µM; with CAKI-1 renal, 0.0779 µM; in the test with SF-295 CNS, less than 0.01 µM. For the same compound, the GI50 was less than 0.01 µM in the test on SR leukemia, less than 0.01 µM in the test with SW-620 colon, less than 0.0176 µM with HCT-116 colon and 0.494 µM in the test on UO-31 renal. In addition, the TGI is 0.519 µM in the test on HOP-92 NSCLC; 19.8 µM with TK-10 renal; 15.7 µM in the test on NCI-H226 lung; less than 0.0198 µM in the test on COLO 205 colon; 5.54 µM in the test on CAKI-1 renal; 2.7 µM with SF-295 CNS. The TGI in the test with SR leukemia stood at 3.35 µM; in the test on SW-620 colon, 12.3 µM; in the test with HCT-116 colon, 14.4 µM; with UO-31 renal, 12.5 µM.
For the compound `CCCCCCCCCCCC(=O)OCC1OC(OC)C(NC(=O)N(CCCl)N=O)C(O)C1O` (configuration not stated), the TGI with TK-10 renal is 61 µM; with NCI-H226 lung it was 59.3 µM; in the test with COLO 205 colon, 59 µM; with CAKI-1 renal, greater than 100 µM; in the test with SF-295 CNS, 20.8 µM; with SR leukemia, 18.6 µM. In addition, the TGI was determined as 24.5 µM in the test with SW-620 colon, 29.2 µM with HCT-116 colon and 33.5 µM in the test on UO-31 renal.
With `CC(=O)N[C@H]1CSSC[C@@H](C(N)=O)NC(=O)[C@H](C(C)C)NC(=O)[C@H](C)NC(=O)[C@H](Cc2cnc[nH]2)NC1=O`, the GI50 in the test on HOP-92 NSCLC, with TK-10 renal, with NCI-H226 lung, with COLO 205 colon, in the test with CAKI-1 renal and in the test with SF-295 CNS was greater than 100 µM throughout. The GI50 with SR leukemia and with UO-31 renal was greater than 100 µM throughout. The TGI in the test on HOP-92 NSCLC, in the test on TK-10 renal, in the test with NCI-H226 lung, in the test with COLO 205 colon, in the test on CAKI-1 renal and in the test on SF-295 CNS was greater than 100 µM throughout. Moreover, the TGI in the test on SR leukemia and in the test with UO-31 renal was greater than 100 µM each time.
For the compound `Cn1c2ccccc2c(=O)c2ccc(Cl)cc21`, the TGI in the test on HOP-92 NSCLC, with TK-10 renal, with COLO 205 colon, in the test on SF-295 CNS, with SR leukemia and in the test with SW-620 colon was greater than 10 µM throughout. In the test with HCT-116 colon, the TGI was greater than 10 µM.
Take `COc1cc(/C=C(\C#N)c2ccccc2)cc(OC)c1`: the TGI is greater than 100 µM with TK-10 renal; greater than 100 µM with NCI-H226 lung; greater than 100 µM in the test with COLO 205 colon; greater than 100 µM in the test on CAKI-1 renal; 73.7 µM with SF-295 CNS; greater than 100 µM in the test with SR leukemia. Also, the TGI in the test on SW-620 colon, in the test on HCT-116 colon and with UO-31 renal was greater than 100 µM each time.
Regarding `O=C1NC(=O)C(CC2CCCCCCCCCCC2=O)C(=O)N1` (configuration not stated), the TGI with HOP-92 NSCLC, in the test with TK-10 renal, in the test on NCI-H226 lung, in the test on COLO 205 colon, in the test with CAKI-1 renal and with SF-295 CNS was greater than 100 µM in each case. The TGI in the test with SR leukemia is 5.28 µM; in the test with SW-620 colon it was greater than 100 µM; in the test on HCT-116 colon, greater than 100 µM; in the test with UO-31 renal it was greater than 100 µM.
Turning to `O=C1CC2c3ccccc3CCC2c2ccccc21` (configuration not stated), the TGI with TK-10 renal is greater than 100 µM; with NCI-H226 lung it was 52.4 µM; in the test on COLO 205 colon, 11.2 µM; in the test with CAKI-1 renal it was greater than 100 µM; in the test on SF-295 CNS, 49.7 µM; in the test on SR leukemia it was greater than 100 µM. Besides, the results for the TGI with SW-620 colon, in the test with HCT-116 colon and in the test on UO-31 renal were greater than 100 µM, 42.1 µM and 50.8 µM, respectively.
On to `CCN(CC)c1ccc(N=Nc2ccc(-c3nc4ccc[n+](C)c4s3)cc2)cc1`, for which the TGI worked out at 30.1 µM in the test with HOP-92 NSCLC; 34.5 µM in the test on TK-10 renal; 26.1 µM with NCI-H226 lung; 11.4 µM with COLO 205 colon; 40.3 µM in the test with CAKI-1 renal; 37 µM in the test with SF-295 CNS. In addition, the TGI in the test with SR leukemia was 53.7 µM; in the test with SW-620 colon, 26.1 µM; in the test with HCT-116 colon it was 20.5 µM; in the test with UO-31 renal, 46 µM.
Turning to `CCOc1cc(C(C)(C)C)ccc1C1=N[C@@](C)(c2ccc(Cl)cc2)[C@@](C)(c2ccc(Cl)cc2)N1C(=O)N1CCN(CCCS(C)(=O)=O)CC1`, the GI50 with HOP-92 NSCLC is 2.31 µM; in the test with TK-10 renal, 10.3 µM; in the test on NCI-H226 lung, 0.462 µM; with COLO 205 colon, 9.53 µM; with CAKI-1 renal, 0.214 µM; in the test with SF-295 CNS, 4.13 µM. The GI50 is 0.236 µM with SR leukemia, 11.2 µM with SW-620 colon and 0.401 µM with UO-31 renal. Moreover, the TGI with HOP-92 NSCLC was found to be 8.17 µM; in the test on TK-10 renal, 46.9 µM; in the test on NCI-H226 lung, 2.11 µM; with COLO 205 colon, 32.6 µM; in the test on CAKI-1 renal it was 5.15 µM; in the test on SF-295 CNS, 15.2 µM. Further, the TGI in the test on SR leukemia was greater than 100 µM; with SW-620 colon, 29.3 µM; in the test on UO-31 renal, 8.59 µM.
